Test results as given in paper PMC8981555 (RSC Advances, 2022).
Where two headings read alike, the source gives them in different places.

Columns and labels:
jack bean urease [1] = molecular target: T1, jack bean urease (Canavalia ensiformis, UniProt P07374); experiment: Urease inhibition assay; assay type: biochemical; details: for % inhibition: value in parentheses after IC50, concentration not given
jack bean urease [2] = molecular target: T1, jack bean urease; experiment: Enzyme kinetic studies; assay type: biochemical; details: for Mode of inhibition: Lineweaver–Burk plots
[3] = at 20 μM concentration of the inhibitor

T1 sequence (P07374 whole entry, looked up): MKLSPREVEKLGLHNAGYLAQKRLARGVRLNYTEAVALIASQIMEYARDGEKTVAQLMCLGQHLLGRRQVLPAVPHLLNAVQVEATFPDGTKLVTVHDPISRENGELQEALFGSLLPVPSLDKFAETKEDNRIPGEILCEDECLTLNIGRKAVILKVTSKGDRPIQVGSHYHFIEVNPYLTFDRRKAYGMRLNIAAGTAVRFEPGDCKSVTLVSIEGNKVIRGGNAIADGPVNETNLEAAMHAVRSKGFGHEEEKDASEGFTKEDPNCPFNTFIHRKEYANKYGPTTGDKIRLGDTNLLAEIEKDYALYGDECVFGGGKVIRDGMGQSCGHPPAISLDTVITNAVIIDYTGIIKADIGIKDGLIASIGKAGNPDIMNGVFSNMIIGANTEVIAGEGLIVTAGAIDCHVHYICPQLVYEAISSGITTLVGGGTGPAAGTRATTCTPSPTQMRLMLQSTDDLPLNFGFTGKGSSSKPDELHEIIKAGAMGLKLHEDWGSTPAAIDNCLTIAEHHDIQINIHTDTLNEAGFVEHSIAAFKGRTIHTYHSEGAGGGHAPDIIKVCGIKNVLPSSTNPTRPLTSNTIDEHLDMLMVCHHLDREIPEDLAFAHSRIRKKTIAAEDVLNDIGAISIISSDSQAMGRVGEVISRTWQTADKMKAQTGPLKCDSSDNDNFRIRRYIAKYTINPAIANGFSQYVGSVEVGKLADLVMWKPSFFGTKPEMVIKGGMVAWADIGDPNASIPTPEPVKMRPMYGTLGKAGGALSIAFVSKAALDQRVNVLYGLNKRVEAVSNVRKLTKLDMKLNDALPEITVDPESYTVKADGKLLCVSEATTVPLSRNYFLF

| SMILES | IC50 (jack bean urease [1]) [µM] | % inhibition (jack bean urease [1]) [%] | Ki (jack bean urease [2]) [µM] | V max(app) (jack bean urease [2]; [3]) [µM/min] | Mode of inhibition (jack bean urease [2]) | K m(app) (jack bean urease [2]; [3]) [mM] | Ki (jack bean urease [2]; derived from Lineweaver–Burk and Dixon plots) [µM] |
| --- | --- | --- | --- | --- | --- | --- | --- |
| CCCCCCCC(=O)NC(=S)Nc1cc([N+](=O)[O-])ccc1OC [Compound 3h, N-(2′-Methoxy-5′-nitrophenylcarbamothioyl) octanamide] | 30.6 ± 0.75 | 88.1 |  |  |  |  |  |
| CCCCCCCC(=O)NC(=S)Nc1ccccc1Sc1ccccc1 [Compound 3j, N-(2′-(Phenylthio)phenylcarbamothioyl) octanamide] | 39.1 ± 0.72 | 86.5 |  |  |  |  |  |
| CCCCCCCC(=O)NC(=S)Nc1ccc(C(F)(F)F)cc1 [Compound 3m, N-(4′-(Trifluoromethyl)phenylcarbamothioyl) octanamide] | 31.16 ± 0.25 | 95.9 |  |  |  |  |  |
| CCCCCCCCCCCC(=O)NC(=S)Nc1ccc(Cl)c(Cl)c1 [Compound 3p, N-(3′,4′-Dichlorophenylcarbamothioyl) dodecanamide] | 20.2 ± 0.48 | 85.2 |  |  |  |  |  |
| NC(N)=S [Thiourea, reference compound] |  | 92.1 |  |  | Competitive | 2.18 | 18.2 |

Continued, in another order:

| IC50 (jack bean urease [1]) [µM] | % inhibition (jack bean urease [1]) [%] | Ki (jack bean urease [2]) [µM] | V max(app) (jack bean urease [2]; [3]) [µM/min] | SMILES | Mode of inhibition (jack bean urease [2]) | K m(app) (jack bean urease [2]; [3]) [mM] | Ki (jack bean urease [2]; derived from Lineweaver–Burk and Dixon plots) [µM] |
| --- | --- | --- | --- | --- | --- | --- | --- |
| 60.1 ± 0.78 | 61.3 |  |  | CCCCCCCC(=O)NC(=S)Nc1cc(C)ccc1C [Compound 3d, N-(2′,5′-Dimethylphenylcarbamothioyl) octanamide] |  |  |  |
| 40.2 ± 0.45 | 76.2 |  |  | CCCCCCCC(=O)NC(=S)Nc1ccc(C)c(C)c1 [Compound 3f, N-(3′,4′-Dimethylphenylcarbamothioyl) octanamide] |  |  |  |
| 15.2 ± 0.58 | 96.3 | 9.28 | 15.63 | CCCCCCCC(=O)NC(=S)Nc1c(C)cccc1C [Compound 3g, N-(2′,6′-Dimethylphenylcarbamothioyl) octanamide] | Competitive | 6.09 |  |
| 22 ± 0.45 | 91.4 |  |  | CCCCCCCC(=O)NC(=S)Nc1c(Cl)cccc1Cl [Compound 3i, N-(2′,6′-Dichlorophenylcarbamothioyl) octanamide] |  |  |  |
| 46.2 ± 0.78 | 85.8 |  |  | CCCCCCCC(=O)NC(=S)Nc1cccc(C)c1C [Compound 3k, N-(2′,3′-Dimethylphenylcarbamothioyl) octanamide] |  |  |  |
